In US20250213475A1, “LIPOSOMAL COMPOSITIONS” (R.G.C.C. Holdings AG, priority 2022, published 2025):

Legend:
[1] = Encapsulation efficacy, indirect from free drug in supernatant by UV/VIS; type: physicochemical; conditions: analogue 1 mg/mL
Protocol: At the end of the above encapsulation process, the solution was centrifuged at 15.000 rpm for 20 minutes and the supernatant was kept for indirect encapsulation determination. The precipitate was lyophilized and kept for further analysis and characterization.
The supernatants after each centrifugation were kept and used to evaluate the amount of the free drug. Subtracting the amount of the free drug at the supernatant from the total added drug, the rest is considered as encapsulated. Briefly, from each solution samples were collected in order to prepare solutions, which were then evaluated with UV/VIS spectrometry. Based on standard curves, in which the different nucleosides were measured in solution on a UV-VIS spectrometer, different the remaining quantity was calculated. The encapsulation efficacy was measured then based on the following equation:
[formula] Quantity of the Nucleoside Analogue in the liposome=(Quantity of the Nucleoside Analogue initially added−Quantity of the Nucleoside Analogue in the supernatant).
For example, for {[2-(6-amino-9H-purin-9-yl)quinazolin-4-yl]oxy}phosphonic acid system code 1, after the centrifugation, we keep the supernatant from which, a fraction is collected to prepare a solution with targeted concertation of 10 ppm. Based on the Dilution Equation, C1V1=C2V2, C1=1000, because we consider, at the initial solution that the concentration is 1000 ppm (based on the fact that all of the added nucleoside analogue would be in the supernatant) • C2: is the targeted concentration, here 10 ppm • V2: volume of the final solution, here 10 mL
Thus, we take 100 uL from the supernatant and we dilute it to 10 mL final volume. The sample is quantified by UV/VIS spectrometry and we calculate the actual concentration of the sample. The concentration is converted to mass and we can estimate the final mass of the nucleoside analogue in the supernatant and in the liposome.

[2] = tested on: human breast adenocarcinoma (luminal type) MCF7 cell line; assay: AlamarBlue cytotoxicity assay, MCF7; type: cell-based; conditions: MCF7, 0.01 μM to 10 μM, 24 h, 48 h and 72 h
Protocol: (§1) All cell lines were maintained at 37° C. in a humidified 5% CO2 atmosphere. AlamarBlue assay was performed to assess cell viability. The viable cells were seeded at a density of 2×10^4 (200 μl/well) in 96-well plate and incubated at 37° C. and 5% CO2 for 24 h to form a cell monolayer. After 24 h of incubation, supernatant on the monolayer was aspirated and 200 μl of medium and varying concentrations of the substances were added and incubated for 24 h, 48 h and 72 h time points. […] Fluorescence was measured at 560 nm excitation and 590 nm emission wavelength. The experiment was performed in triplicates. The average fluorescence was calculated for each triplicate. One sample t-test was used to determine differences in the mean by comparing the treated samples with the untreated controls. P values <0.05 were considered to indicate a statistically significant difference.

[3] = tested on: human colorectal carcinoma HCT116 cell line; assay: AlamarBlue cytotoxicity assay, HCT116; type: cell-based; conditions: HCT116, 0.01 μM to 10 μM, 24 h, 48 h and 72 h
Protocol: as §1

[4] = tested on: human breast adenocarcinoma (triple negative) MDA-MB-231 cell line; assay: AlamarBlue cytotoxicity assay, MDA-MB-231; type: cell-based; conditions: MDA-MB-231, 0.01 μM to 10 μM, 24 h, 48 h and 72 h
Protocol: The human breast adenocarcinoma (luminal type) MCF7 cell line (ECACC 86012803), human breast adenocarcinoma (triple negative) MDA-MB-231 cell line (ECACC 92020424), human colorectal carcinoma HCT116 cell line (ECACC 91091005) and human lung cancer COLO699N cell line (ECACC 93052608) were culture in RPMI 1640 medium Catalog #R0883 (Sigma-Aldrich, Darmstadt, Germany) supplemented with 10% fetal bovine serum Catalog #FB-1001/500 (BioSera, Nuaille, France) and 1% L-glutamine Catalog #G7513-100ML (Sigma-Aldrich, Darmstadt, Germany). All cell lines were maintained at 37° C. in a humidified 5% CO2 atmosphere. AlamarBlue assay was performed to assess cell viability. The viable cells were seeded at a density of 2×10^4 (200 μl/well) in 96-well plate and incubated at 37° C. and 5% CO2 for 24 h to form a cell monolayer. After 24 h of incubation, supernatant on the monolayer was aspirated and 200 μl of medium and varying concentrations of the substances were added and incubated for 24 h, 48 h and 72 h time points. […] Fluorescence was measured at 560 nm excitation and 590 nm emission wavelength. […] The average fluorescence was calculated for each triplicate. […] Results were calculated using the Microsoft Excel 2016. […]

[5] = tested on: human lung cancer COLO699N cell line; assay: AlamarBlue cytotoxicity assay, COLO699N; type: cell-based; conditions: 0.01 μM to 10 μM, 24 h, 48 h and 72 h
Protocol: as §1

[6] = liposomal system code 2, DSPE-PEG:CHOL
[7] = liposomal system code 3, DSPE-PEG:PC:CHOL
[8] = liposomal system code 1, DSPE-PEG:CHOL:OA
[9] = liposomal system code 4, DSPE-PEG:CHOL:OA:PC
[10] = liposomal system code 5, DSPE-PEG:OA

Compound	Encapsulation Efficacy (EE %) [1, 6] [%]	Encapsulation Efficacy (EE %) [1, 7] [%]	Encapsulation Efficacy (EE %) [1, 8] [%]	Encapsulation Efficacy (EE %) [1, 9] [%]	Encapsulation Efficacy (EE %) [1, 10] [%]	cytotoxic effect (in words) [2]	cytotoxic effect (in words) [3]	cytotoxic effect (in words) [4]	cytotoxic effect (in words) [5]
Nc1ccn(-c2nc(O)c3ccccc3n2)c(=O)n1 [4-amino-1-(4-hydroxyquinazolin-2-yl)-1,2-dihydropyrimidin-2-one]	73.6	76.2	–	–	–	–	–	–	–
CC(=O)Nc1ccn(-c2nc(O)c3ccccc3n2)c(=O)n1 [N-[1-(4-hydroxyquinazolin-2-yl)-2-oxo-1,2-dihydropyrimidin-4-yl]acetamide]	58.1	89.9	–	–	–	–	–	–	–
Nc1ncnc2c1ncn2-c1nc(OP(=O)(O)O)c2ccccc2n1 [{[2-(6-amino-9H-purin-9-yl)quinazolin-4-yl]oxy}phosphonic acid]	76.8	50.0	60.8	60.8	70.4	–	–	–	–
Nc1ncnc2c1ncn2-c1nc(O)c2ccccc2n1 [2-(6-Amino-9H-purin-9-yl)quinazolin-4-ol, 2-(6-amino-9H-purin-9-yl)quinazolin-4-ol]	55.2	65.1	55.2	54.4	65.6	no statistically significant cytotoxic effect	no statistically significant cytotoxic effect	no statistically significant cytotoxic effect	no statistically significant cytotoxic effect
